Test results taken from patent US6648952B1, “Anthrapyridone compound, aqueous magenta ink compositions and ink-jet recording method” (Nippon Kayaku Kabushiki Kaisha, priority 1999, dated 2003).
Where a name gives a salt, the structure may show the parent alone.

Assay: Solubility of the dye in pure water
Type: physicochemical
Conditions: pure water (ion exchanged water), 25° C.

solubility: 100 mg/mL
SMILES: CC(C)(C)CC(C)(C)c1ccc(Oc2cc(Nc3ccc(S(=O)(=O)O)cc3)c3c4c(c(C(=O)c5ccccc5)c(=O)[nH]c24)-c2ccccc2C3=O)c(S(=O)(=O)O)c1 [Example M1, sodium salt of anthrapyridone disulfonic acid of Formula (1)]
